Laboratory results published in publication PMC11480411, “Mucosal sugars delineate pyrazine vs pyrazinone autoinducer signaling in Klebsiella oxytoca” (Nature Communications, 2024).

Legend:
Experiment in all cases: PRESTO-Tango GPCR screen
Format in all cases: cell-based
Conditions in all cases: 100 µM
[1] = molecular target: T1, GPR6 (Homo sapiens, UniProt P46095)
T1 construct: purchased PRESTO-Tango GPCR kit (Roth lab / Addgene)
How it was run: (§1)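 Fold activation = RLU of treated well ÷ RLU of PBS control. Reporter: tTA-luciferase in HTLA (HEK293) cells transfected with GPCR-Tango DNA via PEI; ligand 100 μM final, 20 h stimulation, then Bright-Glo readout.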

[2] = molecular target: T2, CCR2 (Homo sapiens, UniProt P41597)
T2 construct: purchased PRESTO-Tango GPCR kit (Roth lab / Addgene)
How it was run: as §1

[3] = molecular target: T3, TAAR5 (Homo sapiens, UniProt O14804)
T3 construct: purchased PRESTO-Tango GPCR kit (Roth lab / Addgene)
How it was run: as §1

[4] = molecular target: T4, GPR135 (Homo sapiens, UniProt Q8IZ08)
T4 construct: purchased PRESTO-Tango GPCR kit (Roth lab / Addgene)
How it was run: as §1

[5] = molecular target: T5, F2RL1 (Homo sapiens, UniProt P55085)
T5 construct: purchased PRESTO-Tango GPCR kit (Roth lab / Addgene)
How it was run: as §1

[6] = molecular target: T6, CALCRb (Homo sapiens, UniProt P30988)
T6 construct: purchased PRESTO-Tango GPCR kit (Roth lab / Addgene)
How it was run: as §1

[7] = molecular target: T7, GPRC5D (Homo sapiens, UniProt Q9NZD1)
T7 construct: purchased PRESTO-Tango GPCR kit (Roth lab / Addgene)
How it was run: as §1

[8] = molecular target: T8, CCKAR (Homo sapiens, UniProt P32238)
T8 construct: purchased PRESTO-Tango GPCR kit (Roth lab / Addgene)
How it was run: as §1

[9] = molecular target: T9, OPRL1 (Homo sapiens, UniProt P41146)
T9 construct: purchased PRESTO-Tango GPCR kit (Roth lab / Addgene)
How it was run: as §1

[10] = molecular target: T10, PK1 (Homo sapiens, UniProt Q8TCW9)
T10 construct: purchased PRESTO-Tango GPCR kit (Roth lab / Addgene)
How it was run: as §1

[11] = molecular target: T11, TSHR (Homo sapiens, UniProt P16473)
T11 construct: purchased PRESTO-Tango GPCR kit (Roth lab / Addgene)
How it was run: as §1

[12] = molecular target: T12, PTGER1 (Homo sapiens, UniProt P34995)
T12 construct: purchased PRESTO-Tango GPCR kit (Roth lab / Addgene)
How it was run: as §1

[13] = molecular target: T13, GPR119 (Homo sapiens, UniProt Q8TDV5)
T13 construct: purchased PRESTO-Tango GPCR kit (Roth lab / Addgene)
How it was run: as §1

[14] = molecular target: T14, CXCR4 (Homo sapiens, UniProt P61073)
T14 construct: purchased PRESTO-Tango GPCR kit (Roth lab / Addgene)
How it was run: as §1

[15] = molecular target: T15, RXFP1 (Homo sapiens, UniProt Q9HBX9)
T15 construct: purchased PRESTO-Tango GPCR kit (Roth lab / Addgene)
How it was run: as §1

[16] = molecular target: T16, CMKLR1 (Homo sapiens, UniProt Q99788)
T16 construct: purchased PRESTO-Tango GPCR kit (Roth lab / Addgene)
How it was run: as §1

[17] = molecular target: T17, HCTR2 (Homo sapiens, UniProt O43614)
T17 construct: purchased PRESTO-Tango GPCR kit (Roth lab / Addgene)
How it was run: as §1

[18] = molecular target: T18, GPR68 (Homo sapiens, UniProt Q15743)
T18 construct: purchased PRESTO-Tango GPCR kit (Roth lab / Addgene)
How it was run: as §1

[19] = molecular target: T19, GAL2 (Homo sapiens, UniProt O43603)
T19 construct: purchased PRESTO-Tango GPCR kit (Roth lab / Addgene)
How it was run: as §1

[20] = molecular target: T20, OXER1 (Homo sapiens, UniProt Q8TDS5)
T20 construct: purchased PRESTO-Tango GPCR kit (Roth lab / Addgene)
How it was run: as §1

[21] = molecular target: T21, CALCRL (Homo sapiens, UniProt Q16602)
T21 construct: purchased PRESTO-Tango GPCR kit (Roth lab / Addgene)
How it was run: as §1

[22] = molecular target: T22, NTSR1 (Homo sapiens, UniProt P30989)
T22 construct: purchased PRESTO-Tango GPCR kit (Roth lab / Addgene)
How it was run: as §1

[23] = molecular target: T23, P2RY10 (Homo sapiens, UniProt O00398)
T23 construct: purchased PRESTO-Tango GPCR kit (Roth lab / Addgene)
How it was run: as §1

[24] = molecular target: T24, PTGIR (Homo sapiens, UniProt P43119)
T24 construct: purchased PRESTO-Tango GPCR kit (Roth lab / Addgene)
How it was run: as §1

[25] = molecular target: T25, GPR26 (Homo sapiens, UniProt Q8NDV2)
T25 construct: purchased PRESTO-Tango GPCR kit (Roth lab / Addgene)
How it was run: as §1

[26] = molecular target: T26, GAL3 (Homo sapiens, UniProt O60755)
T26 construct: purchased PRESTO-Tango GPCR kit (Roth lab / Addgene)
How it was run: as §1

[27] = molecular target: T27, S1PR4 (Homo sapiens, UniProt O95977)
T27 construct: purchased PRESTO-Tango GPCR kit (Roth lab / Addgene)
How it was run: as §1

[28] = molecular target: T28, GPR32 (Homo sapiens, UniProt O75388)
T28 construct: purchased PRESTO-Tango GPCR kit (Roth lab / Addgene)
How it was run: as §1

[29] = molecular target: T29, CYSLTR1 (Homo sapiens, UniProt Q9Y271)
T29 construct: purchased PRESTO-Tango GPCR kit (Roth lab / Addgene)
How it was run: as §1

[30] = molecular target: T30, TACR1 (Homo sapiens, UniProt P25103)
T30 construct: purchased PRESTO-Tango GPCR kit (Roth lab / Addgene)
How it was run: as §1

[31] = molecular target: T31, NPFF2 (Homo sapiens, UniProt Q9Y5X5)
T31 construct: purchased PRESTO-Tango GPCR kit (Roth lab / Addgene)
How it was run: as §1

[32] = molecular target: T32, GPR17 (Homo sapiens, UniProt Q13304)
T32 construct: purchased PRESTO-Tango GPCR kit (Roth lab / Addgene)
How it was run: as §1

[33] = molecular target: T33, SUCNR1 (Homo sapiens, UniProt Q9BXA5)
T33 construct: purchased PRESTO-Tango GPCR kit (Roth lab / Addgene)
How it was run: as §1

[34] = molecular target: T34, PTGDR (Homo sapiens, UniProt Q13258)
T34 construct: purchased PRESTO-Tango GPCR kit (Roth lab / Addgene)
How it was run: as §1

[35] = molecular target: T35, GAL1 (Homo sapiens, UniProt P47211)
T35 construct: purchased PRESTO-Tango GPCR kit (Roth lab / Addgene)
How it was run: as §1

[36] = molecular target: T36, ADRA1B (Homo sapiens, UniProt P35368)
T36 construct: purchased PRESTO-Tango GPCR kit (Roth lab / Addgene)
How it was run: as §1

T16 sequence (Q99788 whole entry): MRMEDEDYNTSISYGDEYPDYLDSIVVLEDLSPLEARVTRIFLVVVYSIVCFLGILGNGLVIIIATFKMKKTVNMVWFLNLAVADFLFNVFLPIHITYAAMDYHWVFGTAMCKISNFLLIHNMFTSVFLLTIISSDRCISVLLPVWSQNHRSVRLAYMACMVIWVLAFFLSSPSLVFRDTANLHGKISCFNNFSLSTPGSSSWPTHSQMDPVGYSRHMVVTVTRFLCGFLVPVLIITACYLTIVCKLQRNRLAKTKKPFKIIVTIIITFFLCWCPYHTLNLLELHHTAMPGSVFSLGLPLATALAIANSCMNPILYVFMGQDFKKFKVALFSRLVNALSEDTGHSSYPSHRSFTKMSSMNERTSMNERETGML
T1 sequence (P46095 whole entry): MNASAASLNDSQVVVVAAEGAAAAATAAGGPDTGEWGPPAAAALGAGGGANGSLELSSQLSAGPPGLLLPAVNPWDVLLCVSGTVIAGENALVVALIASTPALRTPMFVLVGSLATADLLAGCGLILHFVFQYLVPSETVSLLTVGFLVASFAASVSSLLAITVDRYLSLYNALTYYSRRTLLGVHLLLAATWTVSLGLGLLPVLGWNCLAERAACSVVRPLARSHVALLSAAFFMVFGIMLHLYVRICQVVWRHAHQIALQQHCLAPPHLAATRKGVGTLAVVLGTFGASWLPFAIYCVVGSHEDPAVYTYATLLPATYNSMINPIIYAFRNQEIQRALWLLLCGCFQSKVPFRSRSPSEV
T25 sequence (Q8NDV2 whole entry): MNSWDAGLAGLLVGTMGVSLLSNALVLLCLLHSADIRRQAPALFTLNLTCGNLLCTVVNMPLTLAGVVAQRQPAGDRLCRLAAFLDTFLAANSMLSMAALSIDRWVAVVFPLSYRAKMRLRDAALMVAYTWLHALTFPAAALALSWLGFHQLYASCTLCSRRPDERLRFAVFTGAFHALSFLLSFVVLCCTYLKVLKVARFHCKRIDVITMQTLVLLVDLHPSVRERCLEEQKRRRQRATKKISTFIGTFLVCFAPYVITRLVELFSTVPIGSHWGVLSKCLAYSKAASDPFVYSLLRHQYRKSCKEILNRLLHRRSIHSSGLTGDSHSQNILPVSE
T29 sequence (Q9Y271 whole entry): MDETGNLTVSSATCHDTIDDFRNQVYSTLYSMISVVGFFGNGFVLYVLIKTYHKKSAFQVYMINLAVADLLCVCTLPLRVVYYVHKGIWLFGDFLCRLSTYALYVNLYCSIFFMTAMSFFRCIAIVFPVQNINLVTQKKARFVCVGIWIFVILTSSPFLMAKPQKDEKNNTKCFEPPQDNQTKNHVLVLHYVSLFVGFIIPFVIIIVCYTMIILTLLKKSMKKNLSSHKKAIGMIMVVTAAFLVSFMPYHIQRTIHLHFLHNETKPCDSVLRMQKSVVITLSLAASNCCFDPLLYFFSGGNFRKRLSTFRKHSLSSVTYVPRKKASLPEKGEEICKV
T12 sequence (P34995 whole entry): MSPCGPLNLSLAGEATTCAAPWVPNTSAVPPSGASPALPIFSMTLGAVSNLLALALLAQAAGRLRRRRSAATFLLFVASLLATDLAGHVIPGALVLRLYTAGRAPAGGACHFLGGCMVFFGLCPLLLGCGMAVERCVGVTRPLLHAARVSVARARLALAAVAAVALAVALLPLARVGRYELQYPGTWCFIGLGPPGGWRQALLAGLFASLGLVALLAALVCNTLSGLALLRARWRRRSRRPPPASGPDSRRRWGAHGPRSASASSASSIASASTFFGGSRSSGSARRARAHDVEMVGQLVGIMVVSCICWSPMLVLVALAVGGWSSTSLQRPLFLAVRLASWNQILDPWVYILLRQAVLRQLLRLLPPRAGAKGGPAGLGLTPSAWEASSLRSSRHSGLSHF
T18 sequence (Q15743 whole entry): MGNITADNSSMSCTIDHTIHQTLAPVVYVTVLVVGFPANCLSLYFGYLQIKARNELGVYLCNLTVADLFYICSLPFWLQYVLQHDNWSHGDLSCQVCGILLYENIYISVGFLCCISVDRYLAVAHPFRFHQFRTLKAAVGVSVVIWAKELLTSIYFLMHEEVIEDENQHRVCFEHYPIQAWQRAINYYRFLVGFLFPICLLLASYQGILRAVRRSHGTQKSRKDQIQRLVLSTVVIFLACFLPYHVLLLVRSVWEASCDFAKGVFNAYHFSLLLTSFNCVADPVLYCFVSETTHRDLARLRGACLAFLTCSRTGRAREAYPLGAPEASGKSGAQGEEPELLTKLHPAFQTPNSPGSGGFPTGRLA
T23 sequence (O00398 whole entry, one chain of several): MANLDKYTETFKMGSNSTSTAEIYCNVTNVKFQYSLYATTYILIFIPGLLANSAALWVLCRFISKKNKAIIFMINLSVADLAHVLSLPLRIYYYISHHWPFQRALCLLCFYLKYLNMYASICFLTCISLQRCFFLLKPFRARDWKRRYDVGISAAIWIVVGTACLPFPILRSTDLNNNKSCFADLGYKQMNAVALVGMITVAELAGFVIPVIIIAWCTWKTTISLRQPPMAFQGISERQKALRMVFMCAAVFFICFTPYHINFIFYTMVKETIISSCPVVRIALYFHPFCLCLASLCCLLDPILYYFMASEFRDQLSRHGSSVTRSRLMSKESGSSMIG
T10 sequence (Q8TCW9 whole entry): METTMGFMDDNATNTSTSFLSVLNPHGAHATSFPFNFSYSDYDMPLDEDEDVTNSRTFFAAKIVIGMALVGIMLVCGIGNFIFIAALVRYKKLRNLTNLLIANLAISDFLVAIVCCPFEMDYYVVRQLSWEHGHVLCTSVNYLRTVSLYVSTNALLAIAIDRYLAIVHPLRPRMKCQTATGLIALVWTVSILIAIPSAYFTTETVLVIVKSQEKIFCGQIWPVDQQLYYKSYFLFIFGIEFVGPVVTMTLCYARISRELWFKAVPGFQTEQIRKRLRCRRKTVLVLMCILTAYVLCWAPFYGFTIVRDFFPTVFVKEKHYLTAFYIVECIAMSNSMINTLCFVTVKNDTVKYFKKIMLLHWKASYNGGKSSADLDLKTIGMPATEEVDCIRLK
T22 sequence (P30989 whole entry): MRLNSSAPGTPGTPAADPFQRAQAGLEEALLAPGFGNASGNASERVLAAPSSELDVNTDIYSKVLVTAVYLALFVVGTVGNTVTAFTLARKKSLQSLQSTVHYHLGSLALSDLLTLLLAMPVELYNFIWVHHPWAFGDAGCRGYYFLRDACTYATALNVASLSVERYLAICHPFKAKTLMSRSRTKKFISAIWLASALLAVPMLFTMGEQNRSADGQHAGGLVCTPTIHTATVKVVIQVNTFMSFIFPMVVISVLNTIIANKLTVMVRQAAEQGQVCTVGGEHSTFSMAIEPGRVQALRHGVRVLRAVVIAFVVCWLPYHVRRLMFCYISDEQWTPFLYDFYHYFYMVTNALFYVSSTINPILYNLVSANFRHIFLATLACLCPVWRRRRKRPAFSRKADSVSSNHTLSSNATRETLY
T30 sequence (P25103 whole entry): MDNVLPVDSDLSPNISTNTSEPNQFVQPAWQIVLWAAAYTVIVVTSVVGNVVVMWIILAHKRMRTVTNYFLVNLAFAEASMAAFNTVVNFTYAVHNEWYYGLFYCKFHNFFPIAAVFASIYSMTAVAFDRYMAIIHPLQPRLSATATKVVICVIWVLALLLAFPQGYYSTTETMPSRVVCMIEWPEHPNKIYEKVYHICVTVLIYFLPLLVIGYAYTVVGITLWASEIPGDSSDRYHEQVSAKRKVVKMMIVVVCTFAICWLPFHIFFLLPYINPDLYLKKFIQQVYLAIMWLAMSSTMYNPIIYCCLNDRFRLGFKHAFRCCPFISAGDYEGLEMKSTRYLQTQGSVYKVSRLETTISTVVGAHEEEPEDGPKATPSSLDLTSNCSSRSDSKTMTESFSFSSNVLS
T6 sequence (P30988 25-490 isoform P30988-1 limits assumed): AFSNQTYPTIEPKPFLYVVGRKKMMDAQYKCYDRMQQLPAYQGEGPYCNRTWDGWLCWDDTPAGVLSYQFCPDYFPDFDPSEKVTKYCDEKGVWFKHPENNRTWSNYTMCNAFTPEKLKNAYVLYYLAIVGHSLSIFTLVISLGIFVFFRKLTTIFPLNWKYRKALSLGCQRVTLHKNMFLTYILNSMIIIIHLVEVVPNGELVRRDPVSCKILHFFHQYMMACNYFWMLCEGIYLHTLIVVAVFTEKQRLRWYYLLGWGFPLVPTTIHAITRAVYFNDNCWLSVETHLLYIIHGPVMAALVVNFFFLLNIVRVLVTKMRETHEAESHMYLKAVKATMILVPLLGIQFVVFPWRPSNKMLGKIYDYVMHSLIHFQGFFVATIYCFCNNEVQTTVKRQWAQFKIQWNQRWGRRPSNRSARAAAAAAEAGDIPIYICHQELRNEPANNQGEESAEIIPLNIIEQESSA
T7 sequence (Q9NZD1 whole entry): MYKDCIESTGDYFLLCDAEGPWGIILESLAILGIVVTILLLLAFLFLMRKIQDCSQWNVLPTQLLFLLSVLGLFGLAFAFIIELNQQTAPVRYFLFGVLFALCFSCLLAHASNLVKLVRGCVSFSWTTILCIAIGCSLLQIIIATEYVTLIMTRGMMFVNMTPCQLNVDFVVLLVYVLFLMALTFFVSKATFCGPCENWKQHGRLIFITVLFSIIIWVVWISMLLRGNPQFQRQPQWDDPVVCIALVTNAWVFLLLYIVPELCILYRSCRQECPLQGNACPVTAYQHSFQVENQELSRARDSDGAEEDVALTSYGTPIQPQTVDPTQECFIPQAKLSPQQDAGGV
T35 sequence (P47211 whole entry): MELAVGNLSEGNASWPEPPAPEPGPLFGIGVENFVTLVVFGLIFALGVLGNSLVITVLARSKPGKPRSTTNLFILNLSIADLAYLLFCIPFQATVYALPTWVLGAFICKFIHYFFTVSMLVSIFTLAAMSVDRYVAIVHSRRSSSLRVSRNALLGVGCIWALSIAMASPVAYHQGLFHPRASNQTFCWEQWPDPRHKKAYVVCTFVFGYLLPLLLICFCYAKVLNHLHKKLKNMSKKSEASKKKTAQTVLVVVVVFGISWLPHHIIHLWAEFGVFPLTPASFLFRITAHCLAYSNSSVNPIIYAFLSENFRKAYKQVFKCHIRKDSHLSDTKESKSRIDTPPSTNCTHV

Row | SMILES | GPCR activation (heatmap value) [1] | GPCR activation (heatmap value) [2] | GPCR activation (heatmap value) [3] | GPCR activation (heatmap value) [4] | GPCR activation (heatmap value) [5] | GPCR activation (heatmap value) [6] | GPCR activation (heatmap value) [7] | GPCR activation (heatmap value) [8] | GPCR activation (heatmap value) [9] | GPCR activation (heatmap value) [10] | GPCR activation (heatmap value) [11] | GPCR activation (heatmap value) [12] | GPCR activation (heatmap value) [13] | GPCR activation (heatmap value) [14] | GPCR activation (heatmap value) [15] | GPCR activation (heatmap value) [16] | GPCR activation (heatmap value) [17] | GPCR activation (heatmap value) [18] | GPCR activation (heatmap value) [19] | GPCR activation (heatmap value) [20] | also measured
1 | CC(C)Cc1ncc(CCCCNC(=N)N)[nH]c1=O [3-Homo] | 0.1759 | -0.2415 | -0.4757 | -0.1206 | -0.2678 | -1.592 | 0.05555 | 0.3945 | 0.777 | -0.2718 | -0.3975 | 0.737 | -1.3809 | 0.1574 | -0.5413 | -1.034 | -1.63 | -0.3643 | 0.5878 | 0.0005851 | GPCR activation (heatmap value) [21]: 1.281; GPCR activation (heatmap value) [22]: 0.1673; GPCR activation (heatmap value) [23]: -0.398; GPCR activation (heatmap value) [24]: -0.205; GPCR activation (heatmap value) [25]: -1.573; GPCR activation (heatmap value) [26]: 0.4523; GPCR activation (heatmap value) [27]: 0.5734; GPCR activation (heatmap value) [28]: -0.1389; GPCR activation (heatmap value) [29]: -0.2334; GPCR activation (heatmap value) [30]: -0.4178; GPCR activation (heatmap value) [31]: -0.3895; GPCR activation (heatmap value) [32]: 0.06719; GPCR activation (heatmap value) [33]: -0.1091; GPCR activation (heatmap value) [34]: 0.1368; GPCR activation (heatmap value) [35]: -0.2703; GPCR activation (heatmap value) [36]: -0.4471
2 | CC(C)Cc1ncc(CCCNC(=N)N)[nH]c1=O [compound 3] | -1.168 | 0.059 | -0.8641 | -1.115 | 0.6997 | -0.6231 | -1.121 | 0.06622 | 0.326 | -0.4687 | 0.2016 | -0.585 | 0.03995 | -0.06133 | -0.4212 | 0.8088 | -0.2618 | 0.3673 | 0.1995 | -0.9579 | GPCR activation (heatmap value) [21]: -0.1816; GPCR activation (heatmap value) [22]: -0.1053; GPCR activation (heatmap value) [23]: -0.2181; GPCR activation (heatmap value) [24]: 0.2177; GPCR activation (heatmap value) [25]: 2.339; GPCR activation (heatmap value) [26]: 0.02852; GPCR activation (heatmap value) [27]: 0.1012; GPCR activation (heatmap value) [28]: 0.07937; GPCR activation (heatmap value) [29]: 0.3416; GPCR activation (heatmap value) [30]: -0.6956; GPCR activation (heatmap value) [31]: -0.5121; GPCR activation (heatmap value) [32]: 0.1737; GPCR activation (heatmap value) [33]: 0.1336; GPCR activation (heatmap value) [34]: 0.8064; GPCR activation (heatmap value) [35]: -0.09983; GPCR activation (heatmap value) [36]: 0.1702
